Experiments:
[1] = target: T1, Hsd17b4 (Peroxisomal multifunctional enzyme type 2) (Mus musculus, UniProt P51660); assay: Pull-down assay with avidin beads and LC/MS/MS identification of target protein; assay type: binding; conditions: proteins from mouse hepatocytes, avidin beads
T1 construct: Mouse hepatocytes were homogenized to extract proteins from the cytoplasm and nucleus; endogenous in cells; host or cells: mouse hepatocytes (homogenate, cytoplasmic and nuclear proteins)
T1 sequence (P51660 1-735): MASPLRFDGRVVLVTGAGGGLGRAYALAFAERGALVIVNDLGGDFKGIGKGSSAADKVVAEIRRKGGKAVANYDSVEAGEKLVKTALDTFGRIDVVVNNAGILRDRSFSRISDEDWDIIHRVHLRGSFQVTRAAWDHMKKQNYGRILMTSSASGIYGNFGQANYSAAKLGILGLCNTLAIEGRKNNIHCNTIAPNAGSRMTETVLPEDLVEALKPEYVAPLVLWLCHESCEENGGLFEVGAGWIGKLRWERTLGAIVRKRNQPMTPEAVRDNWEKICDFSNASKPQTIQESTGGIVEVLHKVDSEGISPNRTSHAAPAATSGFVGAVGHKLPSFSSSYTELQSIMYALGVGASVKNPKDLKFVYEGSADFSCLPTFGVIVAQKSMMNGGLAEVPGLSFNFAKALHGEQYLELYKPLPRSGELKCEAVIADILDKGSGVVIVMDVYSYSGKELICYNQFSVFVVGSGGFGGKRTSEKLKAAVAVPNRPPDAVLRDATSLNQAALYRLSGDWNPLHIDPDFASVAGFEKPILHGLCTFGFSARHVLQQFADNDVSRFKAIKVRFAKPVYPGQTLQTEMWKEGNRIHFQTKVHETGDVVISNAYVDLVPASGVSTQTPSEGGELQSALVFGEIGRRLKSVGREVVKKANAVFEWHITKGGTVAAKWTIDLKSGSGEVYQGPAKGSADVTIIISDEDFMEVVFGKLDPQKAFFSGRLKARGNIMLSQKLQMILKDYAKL
Description: (§1) Mouse hepatocytes were homogenized to extract proteins from the cytoplasm and nucleus. […] The chemical formulae of Compounds #142 and #151 are shown in General Formulae (13) and (14), respectively.
Thereafter, a pull-down assay was carried out with avidin-labeled magnetic beads (hereinafter, sometimes referred to as “avidin beads”), and the compounds and proteins bound to the avidin beads were subjected to acrylamide gel electrophoresis. The acrylamide gel after subjecting to electrophoresis was negatively stained, a band of a protein specifically bound to Compound #142 was excised, and the protein was identified by an LC/MS/MS analysis.
FIG. 17 is a photograph showing the results of acrylamide gel electrophoresis.

[2] = tested on: G0S2; assay: Inhibition of the expression of G0S2 (stated, test not specified); assay type: cell-based
Excerpt: as §1

[3] = tested on: G0S2 promoter (−2030→+10); assay: G0S2 promoter (−2030→+10) luciferase assay in Hepa1-6 cells; assay type: cell-based, mouse; conditions: Hepa1-6 reporter cells, 10 μM, 24 hours
Description: To get closer to the environment in the liver, a cell stably expressing an expression cassette in which a luciferase gene was ligated to the downstream side of the G0S2 promoter (−2030→+10) was constructed in the Hepa1-6 cell, which is a mouse hepatoma-derived cell. Using this cell, an effect of the candidate compounds on the luciferase activity was evaluated in the same manner as in the primary screening described above.

[4] = tested on: Bmal1 promoter; assay: Bmal1 promoter luciferase assay in MEF cell line; assay type: cell-based; conditions: MEF reporter cell line, 10 μM, 24 hours
Description: Therefore, in order to exclude compounds having an effect on clock genes in normal cells, studies were conducted using the MEF cell line stably expressing an expression cassette in which a luciferase gene was ligated to the downstream side of the Bmal1 promoter.

[5] = tested on: nuclear receptor RARα mRNA; assay: RARα mRNA expression in Hepa1-6 cells (qRT-PCR); assay type: cell-based, mouse; conditions: 10 μM, 24 hours
[6] = tested on: G0S2 promoter; assay: G0S2 promoter luciferase activity in O-4000E cell line, IC50; assay type: cell-based, mouse; conditions: Mus musculus, 24 h, O-4000E cells, 24 hours after exposure
Description: The present inventors have searched for a G0S2 gene transcription inhibitor. In searching, the present inventors have received a compound library consisting of 9600 compounds (Core library) from the Open Innovation Center for Drug Discovery, The University of Tokyo. For this compound library, primary screening was carried out by evaluating an effect of compounds on a luciferase activity using a 384-well plate. The drug efficacy evaluation was studied three times for each compound (final concentration of 10 μM) using a cell line stably expressing an expression cassette in which a luciferase gene was ligated to the downstream side of the G0S2 promoter (−2030→−1378), and compounds which reduced a luciferase activity to less than ¼ were extracted from all studies. As a result, 175 compounds were hit.
For the evaluation of drug efficacy of Compound Nos. 1 and 2, which are hit compounds, an IC50 was calculated. The O-4000E cell line was seeded, and Compound Nos. 1 and 2 were serially diluted in […] so as to have final concentrations of 0.15625 μM to 10 μM, followed by exposure of the cells to the compounds. The luciferase activity was measured 24 hours after the exposure, and the curve fitting was carried out to calculate an IC50 of the compounds.
Detailed drug efficacy evaluation at low concentrations was carried out for the compound of Example 2 (NS-3-011) whose drug efficacy at a concentration of less than 10 μM was observed based on the studies so far and which is expected to have an effect equal to or more than that of Compound No. 2. First, using O-4000E cells, IC50 of Compound No. 2 and the compound of Example 2 (NS-3-011) on the G0S2 promoter activity was calculated.

[7] = tested on: G0S2 mRNA; assay: G0S2 mRNA expression in Hepa1-6 cells (qRT-PCR); assay type: cell-based, mouse; conditions: for expression level of G0S2 mRNA: 10 μM, 24 hours; for G0S2 mRNA expression level: 48 hours, vs DMSO
Description: The effect of the compound on the expression level of mRNA of the G0S2 gene was evaluated for the three compounds extracted so far. 24 hours after seeding with Hepa1-6 cells, the cells were exposed to hit compounds at 10 μM and sampling and total RNA extraction were carried out 24 hours later. Subsequently, changes in the expression level of mRNA of the G0S2 gene were measured by a qRT-PCR method.
Hepa1-6 cells were exposed to 10 μM of each of seven derivatives of Compound No. 2 (Examples 2 and 4 to 9) and an effect of the derivative compounds on the expression level of G0S2 mRNA after 24 hours was evaluated.
Therefore, Hepa1-6 cells were exposed to Compound No. 2 and the compound of Example 2 (NS-3-011) in the range of 0.5 to 5 μM and an effect of the compounds on the expression level of endogenous G0S2 mRNA after 48 hours was evaluated.
Subsequently, Hepa1-6 cells were transfected with siRNA against Hsd17b4 or control siRNA in the presence (10 μM) or absence (indicated as “DMSO” in FIG. 22B) of Compound No. 2. Subsequently, each cell was recovered after 48 hours and total RNA was extracted. Subsequently, the expression level of the G0S2 gene was quantified by real-time PCR.

[8] = tested on: G0S2 mRNA; assay: G0S2 mRNA expression in human HepG2 cells; assay type: cell-based; conditions: 10 μM, 24 hours
[9] = tested on: DEN-induced hepatitis/hepatoma mouse model; assay: DEN-induced hepatitis/hepatoma mouse model: hepatoma/tumor formation in liver after 14 weeks; assay type: in vivo; conditions: 15 mg/kg in drinking water
Description: Mice of a diethylnitrosamine (DEN)-induced hepatitis/hepatoma mouse model were divided into two groups, one receiving siRNA against G0S2 (G0S2 siRNA-administered group) and the other receiving negative control siRNA (control siRNA-administered group). Administration of siRNA to mice was carried out by tail vein administration of 1.6 nmol/mouse using a nucleic acid transfection reagent (trade name “LipoTrust™ EX Oligo <in vivo>, Hokkaido System Science Co., Ltd.). As the siRNA against G0S2, commercially available siRNA (Life Technologies, Inc., trade name “Stealth siRNA”, catalog number “#1320001”, the base sequence of the antisense strand is set forth in SEQ ID NO: 3) was used. As the control siRNA, a commercially available siRNA (Life Technologies, Inc., the base sequence of the antisense strand is set forth in SEQ ID NO: 4) was used.
Subsequently, mice of the same G0S2 siRNA-administered group and control siRNA-administered group as above were prepared. DEN was added to drinking water at a concentration of 80 mg/L from one day after the administration of siRNA to mice, and mice were sacrificed after 14 weeks of breeding and then subjected to analysis. As a result, the onset of hepatoma was inhibited in mice of the G0S2 siRNA-administered group.
(§2) Diethylnitrosamine (DEN) dissolved in water at a concentration of 80 mg/L as drinking water was administered in drinking water to ICR mice, thereby inducing chronic inflammation and hepatoma in the liver. In addition, a group in which 15 mg/kg of the compound of Example 10 (NS-3-086) was administered in drinking water from immediately after the start of administration of DEN in drinking water was prepared. As a control group, a group given tap water as drinking water was used.
Subsequently, mice of each group were sacrificed 14 weeks after the start of administration of DEN in drinking water, and the liver was excised and analyzed. FIGS. 28A, 28B and 28C are photographs of the liver at 14 weeks after the start of administration of DEN in drinking water.

[10] = tested on: alanine aminotransferase (ALT) activity in serum; assay: Serum ALT activity in DEN-induced hepatitis/hepatoma mouse model; assay type: in vivo; conditions: ICR mice, DEN 80 mg/L, 15 mg/kg in drinking water, 8 weeks and 12 weeks
Description: as §2, with “inflammation” for “inflammation and hepatoma”
Subsequently, 8 weeks and 12 weeks after the start of administration of DEN in drinking water, blood was collected from the tails of mice of each group, and the alanine aminotransferase (ALT) activity in serum was measured using a commercially available kit (“Transaminase CII-Test Wako”, manufactured by Wako Pure Chemical Industries, Ltd.).

[11] = tested on: Hsd17b4 gene; assay: Hsd17b4 knockdown in Hepa1-6 cells: Hsd17b4 gene expression (real-time PCR); assay type: cell-based, mouse; conditions: 48 hours after transfection, vs control siRNA
Excerpt: Hepα1-6 cells, which are mouse hepatoma-derived cells, were divided into two groups, in which one group was transfected with siRNA against Hsd17b4 and the other group was transfected with control siRNA. The base sequence of the sense strand of siRNA against Hsd17b4 is set forth in SEQ ID NO: 7, and the base sequence of the antisense strand thereof is set forth in SEQ ID NO: 8. In addition, commercially available siRNA (Life Technologies, Inc., the base sequence of the antisense strand is set forth in SEQ ID NO: 4) was used as the control siRNA.
Subsequently, each cell was recovered after 48 hours and total RNA was extracted. Subsequently, the expression level of the Hsd17b4 gene was quantified by real-time PCR.

[12] = ICR mice, DEN 80 mg/L, 14 weeks
[13] = liver, 14 weeks after start of DEN in drinking water

Compound: CCCCCCCCCCCCNC(=N)NCc1ccc(OCc2cn(CCOCCOCCOCCNC(=O)CCCC[C@@H]3SC[C@@H]4NC(=O)N[C@@H]43)nn2)cc1 [#142]
- protein specifically bound in pull-down assay (band of about 75 kDa) [1]: Hsd17b4

Compound: N=C(NCCCCCO)NCc1ccccc1 [Comparative Example 1]
- inhibition of the expression of G0S2 [2]: not inhibiting the expression of G0S2

Compound: CC(=O)Nc1cccc(NC(=O)CSc2nc(=O)n(N3CCN(C)CC3)c3c2CCC3)c1 [Compound No. 1]
- G0S2 promoter (−2030→+10) activity (relative value) [3]: less than ½
- Bmal1 promoter activity [4]: no significant change
- expression level of nuclear receptor RARα mRNA [5]: no change
- IC50 [6]: 5 µM

Compound: O=C(Nc1cccc(S(=O)(=O)c2cccc(NC(=O)C3CC3)c2)c1)C1CC1 [Compound No. 3]
- G0S2 promoter (−2030→+10) activity (relative value) [3]: less than ½
- Bmal1 promoter activity [4]: no significant change
- expression level of nuclear receptor RARα mRNA [5]: significant decrease

Compound: CCCCCCN/C(=N\C(=O)OC(C)(C)C)NCc1ccccc1 [Example 4]
- expression level of G0S2 mRNA [7]: up to the same extent as that of Compound 2

Compound: CCCCCCNC(=N)NCCc1ccccc1 [Example 6]
- G0S2 mRNA expression level ([7]; 2.5 μM): significant decrease
- G0S2 mRNA expression level ([7]; 5 μM): significant decrease
- expression level of G0S2 mRNA [7]: up to the same extent as that of Compound 2
- expression level of G0S2 mRNA [8]: significant decrease

Compound: CCCCCCCCCCCCNC(=N)NCc1cc(C(F)(F)F)cc(C(F)(F)F)c1 [Example 10]
- hepatic hardening [9, 12]: inhibited
- tumor formation in the liver [9, 12]: inhibited
- mice (n) with large number of tumors [9, 13]: 0 n
- mice (n) with number of tumors 0 [9, 13]: 3 n
- mice (n) with number of tumors 1 [9, 13]: 3 n
- increase in serum ALT activity by DEN drinking water [10]: inhibited

Compound: siRNA against Hsd17b4: siRNA against Hsd17b4, sense strand SEQ ID NO: 7, antisense strand SEQ ID NO: 8 (sense GAGCAUUAGUCAUUGUGAACGACUU; antisense AAGUCGUUCACAAUGACUAAUGCUC; listed as RNA, chemistry not given here)
- expression of Hsd17b4 [11]: inhibited

— patent US20190359560A1, “ANTI-INFLAMMATORY DRUG AND USES THEREOF” (KYUSHU UNIVERSITY, NATIONAL UNIVERSITY CORPORATION, priority 2015, published 2019)
